The values that follow come from patent US10358453B2, “Antiviral compounds” (priority 2015, dated 2019).

Bounds are passed on as bounds.

Data set [1] can be described thus: Cytotoxicity determination (CCK-8, without addition of virus). As to conditions: human, HEp-2 cells (uninfected), no virus, Table C = greater than 100 μM, Table D = equal to or less than 100 μM and greater than 10 μM. The class given is cell-based. The essentials: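 HEp-2 cells, no virus, exposed to compound from 100 μM in ½ serial dilutions (7 points, duplicate, 1% DMSO) for 5 days at 37° C, 5% CO2. Viability by CCK-8 (3-4 h) optical density; CC50 calculated.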

For another data set, the target named is recombinant RSV complex (Human respiratory syncytial virus A, UniProt P28887). Description: RSV polymerase inhibition assay. The class given is biochemical. The note with it: 10 nM recombinant RSV complex, 2 h at 30° C.; Table E = <1 μM, Table F = <50 μM; read-out: IC50. Put shortly:
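10 nM recombinant RSV polymerase complex in Tris-HCl pH7.5, 6 mM MgCl2 with RNA oligonucleotides and radionucleotides, incubated 2 h at 30° C with rising inhibitor concentrations. Stopped with EDTA; radiolabelled RNA product counted by scintillation; IC50 from sigmoidal non-linear regression.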

The subject of data set [2] is RSV subgenomic replicon 395 HeLa and APC126. Put plainly: RSV subgenomic replicon assay (Renilla luciferase). As to conditions: human respiratory syncytial virus; RSV replicon cells (395 HeLa 7 days or APC126 3 days); Table G = less than 1 μM, Table H = equal to or higher than 1 μM and less than 50 μM. The class given is cell-based. The essentials: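 Replicon cells (RSV with SH, G, F replaced by blasticidin resistance; 395 HeLa or BHK-derived APC126) exposed to 9-point 1:3 compound dilutions in 1% DMSO for 7 days (395 HeLa) or 3 days (APC126) at 37 °C. Renilla luciferase luminescence read; EC50 is concentration cutting signal 50% versus untreated cells.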

Chain of recombinant RSV complex (P28887 whole entry): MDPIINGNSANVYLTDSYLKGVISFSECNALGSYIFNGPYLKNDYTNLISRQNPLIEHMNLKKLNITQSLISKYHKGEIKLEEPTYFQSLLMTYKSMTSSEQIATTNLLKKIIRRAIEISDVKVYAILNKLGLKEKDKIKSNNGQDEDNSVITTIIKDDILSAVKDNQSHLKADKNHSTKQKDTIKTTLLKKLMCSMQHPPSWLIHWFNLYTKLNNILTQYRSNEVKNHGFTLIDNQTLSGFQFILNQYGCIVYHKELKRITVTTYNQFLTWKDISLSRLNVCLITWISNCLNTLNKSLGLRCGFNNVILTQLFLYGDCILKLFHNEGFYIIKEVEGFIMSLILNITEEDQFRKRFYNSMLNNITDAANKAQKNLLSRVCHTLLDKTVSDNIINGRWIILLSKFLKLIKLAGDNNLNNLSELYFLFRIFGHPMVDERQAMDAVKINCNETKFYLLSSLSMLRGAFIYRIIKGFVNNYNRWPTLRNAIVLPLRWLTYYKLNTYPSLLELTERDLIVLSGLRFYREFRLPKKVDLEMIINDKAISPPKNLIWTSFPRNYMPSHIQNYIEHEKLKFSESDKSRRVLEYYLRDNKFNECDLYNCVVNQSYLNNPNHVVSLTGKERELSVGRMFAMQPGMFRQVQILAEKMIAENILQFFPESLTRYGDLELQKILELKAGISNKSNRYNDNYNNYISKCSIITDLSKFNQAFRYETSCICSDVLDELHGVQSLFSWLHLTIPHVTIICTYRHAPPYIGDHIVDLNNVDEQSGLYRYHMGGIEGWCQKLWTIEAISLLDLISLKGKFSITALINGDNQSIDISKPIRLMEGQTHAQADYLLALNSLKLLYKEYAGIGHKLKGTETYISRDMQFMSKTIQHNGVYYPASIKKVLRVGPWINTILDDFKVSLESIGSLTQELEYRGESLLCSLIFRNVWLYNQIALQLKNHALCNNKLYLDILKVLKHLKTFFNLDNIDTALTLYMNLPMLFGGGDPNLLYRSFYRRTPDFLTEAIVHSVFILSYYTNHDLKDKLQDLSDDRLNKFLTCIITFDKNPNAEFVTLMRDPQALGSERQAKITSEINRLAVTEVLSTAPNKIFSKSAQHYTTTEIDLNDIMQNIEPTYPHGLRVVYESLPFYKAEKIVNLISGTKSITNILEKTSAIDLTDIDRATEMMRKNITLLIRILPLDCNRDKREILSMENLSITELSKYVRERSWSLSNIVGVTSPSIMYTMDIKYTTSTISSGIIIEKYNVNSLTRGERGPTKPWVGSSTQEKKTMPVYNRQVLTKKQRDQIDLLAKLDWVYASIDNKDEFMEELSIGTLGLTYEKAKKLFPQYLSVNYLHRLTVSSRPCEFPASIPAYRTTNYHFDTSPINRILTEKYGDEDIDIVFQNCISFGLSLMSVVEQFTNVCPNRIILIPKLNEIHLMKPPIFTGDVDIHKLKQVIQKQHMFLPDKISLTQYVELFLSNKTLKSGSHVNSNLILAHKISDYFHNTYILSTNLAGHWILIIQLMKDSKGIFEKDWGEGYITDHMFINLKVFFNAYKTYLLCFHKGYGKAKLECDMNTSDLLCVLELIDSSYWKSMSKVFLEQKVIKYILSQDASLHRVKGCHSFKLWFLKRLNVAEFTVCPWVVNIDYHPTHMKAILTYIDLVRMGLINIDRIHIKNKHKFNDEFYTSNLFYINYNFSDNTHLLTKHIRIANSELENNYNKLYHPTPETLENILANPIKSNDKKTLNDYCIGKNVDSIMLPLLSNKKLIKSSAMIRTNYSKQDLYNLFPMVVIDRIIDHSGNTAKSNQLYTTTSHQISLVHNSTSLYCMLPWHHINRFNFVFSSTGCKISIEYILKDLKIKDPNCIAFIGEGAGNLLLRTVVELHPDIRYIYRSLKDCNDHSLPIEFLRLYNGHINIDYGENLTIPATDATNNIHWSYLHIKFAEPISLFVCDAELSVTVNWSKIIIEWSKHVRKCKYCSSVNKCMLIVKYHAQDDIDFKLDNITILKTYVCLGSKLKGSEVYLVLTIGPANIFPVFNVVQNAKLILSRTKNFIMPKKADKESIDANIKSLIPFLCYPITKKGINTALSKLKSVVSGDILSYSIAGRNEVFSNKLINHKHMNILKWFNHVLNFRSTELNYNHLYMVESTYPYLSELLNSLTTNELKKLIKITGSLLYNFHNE
Chain of recombinant RSV complex (P03421 whole entry, further chain): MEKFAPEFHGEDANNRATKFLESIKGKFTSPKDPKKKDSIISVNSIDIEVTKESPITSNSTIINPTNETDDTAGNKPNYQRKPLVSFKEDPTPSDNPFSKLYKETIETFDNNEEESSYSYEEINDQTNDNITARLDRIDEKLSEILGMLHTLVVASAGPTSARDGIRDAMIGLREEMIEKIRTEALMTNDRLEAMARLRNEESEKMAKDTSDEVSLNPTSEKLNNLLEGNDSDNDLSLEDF

In data set [1], `COc1cc(C(=O)NC[C@@](O)(c2cc3c(c(-c4ccc(F)cc4)n2)OC[C@@]3(C)N)C(F)(F)F)cc2ccc(CO)nc12` [Compound 84] registered a CC50 at 5 days of 10 to 100 µM. The IC50 at recombinant RSV complex was < 1 µM. Also, in data set [2], the EC50 is < 1 µM.
Take `COc1cc(C(=O)NC[C@@](O)(c2cc3c(c(-c4ccc(F)cc4)n2)OC[C@@]3(C)NC(C)=O)C(F)(F)F)ccc1OC[C@@H](C)O` [Compound 85]: the CC50 at 5 days in data set [1] was in the range of 10 to 100 µM. In addition, at recombinant RSV complex, the IC50 is < 1 µM. For the same compound, the 50% effective concentration (EC50) in data set [2] is < 1 µM.
Compound `COc1cc(C(=O)NCC(O)(c2cc(C(C)(N)C3CC3)cc(-c3ccc(F)cc3)n2)C(F)(F)F)ccc1OC[C@@H](C)O` (stereo partly drawn) [Compound 88] had a CC50 at 5 days in data set [1] of 10 to 100 µM. Further, at recombinant RSV complex, the IC50 was < 1 µM. Moreover, the EC50 in data set [2] was < 1 µM.
In turn, `COc1cc(C(=O)NC[C@@](O)(c2cc3c(c(-c4ccc(F)cc4)n2)OC[C@@]3(C)N)C(F)(F)F)cc2ccc(C(C)(C)O)nc12` [Compound 90] had a CC50 at 5 days in data set [1] of 10 to 100 µM. For the same compound, at recombinant RSV complex, the IC50 was < 1 µM. The EC50 in data set [2] is < 1 µM.
The compound `COc1cc(C(=O)NC[C@@](O)(c2cc3c(c(-c4ccc(F)cc4)n2)OC[C@@]3(C)N)C(F)(F)F)cc2ccc(C(C)O)nc12` (stereo partly drawn) [Compound 91] had a CC50 at 5 days in data set [1] of 10 to 100 µM. Also, at recombinant RSV complex, the IC50 was < 1 µM. The EC50 in data set [2] is < 1 µM.
In data set [1], `COc1cc(C(=O)NCC(O)(c2cc3c(c(-c4ccc(F)cc4)n2)OCCC3(N)C2CC2)C(F)(F)F)ccc1OC[C@@H](C)O` (stereo partly drawn) [Compound 92] showed a CC50 at 5 days of 10 to 100 µM. In addition, the IC50 at recombinant RSV complex is < 1 µM. Also, the EC50 in data set [2] was < 1 µM.
Regarding `COc1nc(C(=O)NC[C@@](O)(c2cc3c(c(-c4ccc(F)cc4)n2)OC[C@@]3(C)N)C(F)(F)F)cc2c1NC(=O)C2` [Compound 93], the CC50 at 5 days in data set [1] was in the range of 10 to 100 µM. The IC50 on recombinant RSV complex is < 50 µM. The compound also gave an EC50 in data set [2] of 1 to 50 µM.
The corresponding values for `C[C@@]1(N)COc2c1cc([C@](O)(CNC(=O)c1cc(OC(F)F)c3[nH]ccc3c1)C(F)(F)F)nc2-c1ccc(F)cc1` [Compound 94] are 10 to 100 µM, < 1 µM and < 1 µM.
In data set [1], `COc1cc(C(=O)NC[C@@](O)(c2cc3c(c(-c4ccc(F)cc4)n2)OC[C@@]3(C)N)C(F)(F)F)cc2nc[nH]c12` [Compound 95] returned a CC50 at 5 days of 10 to 100 µM. Moreover, the IC50 on recombinant RSV complex was < 1 µM. Also, in data set [2], the EC50 was < 1 µM.
`C[C@@]1(N)COc2c1cc([C@](O)(CNC(=O)c1cc3c(c(OC(F)F)c1)NC(=O)C3)C(F)(F)F)nc2-c1ccc(F)cc1` [Compound 98]: in data set [1], the CC50 at 5 days fell in the range of 10 to 100 µM. The IC50 on recombinant RSV complex was < 1 µM. Moreover, the EC50 in data set [2] is < 1 µM.
`COc1cc(C(=O)NC[C@](O)(c2cc3c(c(-c4ccc(F)cc4)n2)NCC[C@]3(C)N)C(F)(F)F)ccc1OC[C@@H](C)O` [Compound 101] yielded a CC50 at 5 days in data set [1] of 10 to 100 µM. In addition, the IC50 at recombinant RSV complex was < 1 µM. In addition, the EC50 in data set [2] was < 1 µM.
The compound `COc1cc(C(=O)NCC(O)(c2cc3c(c(-c4ccc(F)cc4)n2)OCC3(N)CO)C(F)(F)F)cc2cc[nH]c12` (stereo not drawn) [Compound 102] came in with a CC50 at 5 days in data set [1] of 10 to 100 µM. Further, the IC50 at recombinant RSV complex was < 1 µM. The EC50 in data set [2] fell in the range of 1 to 50 µM.
The corresponding values for `COc1cc(C(=O)NCC(O)(c2cc3c(c(-c4ccc(F)cc4)n2)OCCC3(C)N)C(F)(F)F)ccc1OC[C@@H](C)O` (stereo partly drawn) [Compound 103] are 10 to 100 µM, < 1 µM and < 1 µM.
The corresponding values for `COc1cc(C(=O)NCC(O)(c2cc3c(c(-c4ccc(F)cc4)n2)OCC32CCN2)C(F)(F)F)ccc1OC[C@@H](C)O` (stereo partly drawn) [Compound 108] are 10 to 100 µM, < 1 µM and 1 to 50 µM.
For `COc1ccc(C(=O)NCC(O)(c2cc3c(c(-c4ccc(F)cc4)n2)OCC3(C)N)C(F)(F)F)nc1OC` (stereo not drawn) [Compound 112] the same measures were 10 to 100 µM, < 1 µM and < 1 µM.
Take `C[C@@H](O)COc1ccc(C(=O)NC[C@@](O)(c2cc3c(c(-c4ccc(F)cc4)n2)OC[C@@]3(C)N)C(F)(F)F)cc1Cl` [Compound 113]: the CC50 at 5 days in data set [1] lay in the range of 10 to 100 µM. On recombinant RSV complex, the IC50 is < 1 µM. The EC50 in data set [2] was < 1 µM.
In the case of `Cn1nc(C(F)(F)F)cc1C(=O)NCC(O)(c1cc2c(c(-c3ccc(F)cc3)n1)OCC2(C)N)C(F)(F)F` (stereo not drawn) [Compound 114], the CC50 at 5 days in data set [1] fell in the range of 10 to 100 µM. Also, the IC50 on recombinant RSV complex is < 1 µM. Besides, the EC50 in data set [2] is < 1 µM.
For `COc1cc(C(=O)NCC(O)(c2cc(C3(C)CCNCC3)cc(-c3ccc(F)cc3)n2)C(F)(F)F)ccc1OCCO` (stereo not drawn) [Compound 117], the CC50 at 5 days in data set [1] was 10 to 100 µM. Moreover, at recombinant RSV complex, the half-inhibitory concentration (IC50) was < 50 µM. This compound also had an EC50 in data set [2] of 1 to 50 µM.
The corresponding values for `COc1cc(C(=O)NCC(O)(c2cc(C3(C)COCCN3)cc(-c3ccc(F)cc3)n2)C(F)(F)F)ccc1OCCO` (stereo not drawn) [Compound 119] are > 100 µM, < 1 µM and < 1 µM.
For `COc1cc(C(=O)NCC(O)(c2nc(-c3ccc(F)cc3)cc3c2OC(C)(N)C3)C(F)(F)F)ccc1OC[C@@H](C)O` (stereo partly drawn) [Compound 120], in data set [1], the CC50 at 5 days is 10 to 100 µM. For the same compound, the IC50 at recombinant RSV complex is < 1 µM. Besides, the EC50 in data set [2] is < 1 µM.
`COc1cc(C(=O)NC[C@@](O)(c2cc3c(c(-c4ccc(F)cc4)n2)OC[C@@]3(C)N)C(F)(F)F)ccc1OCC(C)=O` [Compound 121]: the CC50 at 5 days in data set [1] was in the range of 10 to 100 µM. For the same compound, the IC50 at recombinant RSV complex was < 1 µM. In addition, the EC50 in data set [2] was < 1 µM.
The compound `COc1cc(C(=O)NC[C@@](O)(c2cc3c(c(-c4ccc(F)cc4)n2)OC[C@@]3(C)N)C(F)(F)F)cc(F)c1OC[C@@H](C)O` [Compound 122] gave a CC50 at 5 days in data set [1] of 10 to 100 µM. On recombinant RSV complex, the IC50 is < 1 µM. In addition, the EC50 in data set [2] was < 1 µM.
For the compound `COc1cc(C(=O)NC[C@@](O)(c2cc3c(c(-c4ccc(F)cc4)n2)OC[C@@]3(C)NO)C(F)(F)F)ccc1OC[C@@H](C)O` [Compound 123], the CC50 at 5 days in data set [1] lay in the range of 10 to 100 µM. For the same compound, at recombinant RSV complex, the IC50 is < 1 µM. Also, in data set [2], the EC50 was < 1 µM.
In data set [1], `C[C@@]1(N)COc2c1cc([C@](O)(CNC(=O)c1cc(OCCO)c3[nH]ccc3c1)C(F)(F)F)nc2-c1ccc(F)cc1` [Compound 124] returned a CC50 at 5 days of 10 to 100 µM. For the same compound, the IC50 on recombinant RSV complex was < 1 µM. Moreover, the EC50 in data set [2] is < 1 µM.
Regarding `COc1cc(C(=O)NCC(O)(c2cc3c(c(-c4ccc(F)cc4)n2)OCC3(C)N)C(F)(F)F)ccc1OC(C)(C)CO` (stereo not drawn) [Compound 125], in data set [1], the CC50 at 5 days was in the range of 10 to 100 µM. For the same compound, the IC50 at recombinant RSV complex is < 1 µM. Further, the EC50 in data set [2] was < 1 µM.
As to `COc1cc(C(=O)NC[C@@](O)(c2cc3c(c(-c4ccc(F)cc4)n2)NC[C@@]3(C)N)C(F)(F)F)ccc1OC1CC1` [Compound 127], the CC50 at 5 days in data set [1] lay in the range of 10 to 100 µM. Moreover, the IC50 on recombinant RSV complex is < 1 µM. Further, the EC50 in data set [2] was < 1 µM.
Take `COc1cc(C(=O)NC[C@@](O)(c2cc3c(c(-c4ccc(F)cc4)n2)OC[C@@]3(C)NC(C)=N)C(F)(F)F)ccc1OC[C@@H](C)O` [Compound 130]: the CC50 at 5 days in data set [1] was > 100 µM. The IC50 on recombinant RSV complex was < 1 µM. In addition, the EC50 in data set [2] is < 1 µM.
`COc1cc(C(=O)NC[C@@](O)(c2cc3c(c(-c4ccc(F)cc4)n2)OC[C@@]3(C)NC2COC2)C(F)(F)F)ccc1OC[C@@H](C)O` [Compound 131]: in data set [1], the CC50 at 5 days is 10 to 100 µM. The IC50 at recombinant RSV complex was < 1 µM. In data set [2], the EC50 was < 1 µM.
Compound `COc1cc(C(=O)NC[C@@](O)(c2cc3c(c(-c4ccc(F)cc4)n2)OC[C@@]3(C)NC(N)=O)C(F)(F)F)ccc1OC[C@@H](C)O` [Compound 132] returned a CC50 at 5 days in data set [1] of 10 to 100 µM. Further, the IC50 on recombinant RSV complex was < 1 µM. For the same compound, in data set [2], the EC50 is < 1 µM.
In data set [1], `COc1cc(C(=O)NCC(O)(c2cc(N3CCNCC3)cc(-c3ccc(F)cc3)n2)C(F)(F)F)ccc1OCCO` (stereo not drawn) [Compound 138] yielded a CC50 at 5 days of 10 to 100 µM. Further, the IC50 at recombinant RSV complex was < 1 µM. For the same compound, the EC50 in data set [2] lay in the range of 1 to 50 µM.
